In PubChem BioAssay (NCI):
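Test compounds were applied to cells in 96-well plates for 48 hours at 5 doses. Definition used: TGI = concentration required for complete inhibition of growth.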

Key:
Assay in all cases: NCI anticancer screen, dose series, 48 h
U251 CNS = test system: U251 CNS
SK-OV-3 ovarian = test system: SK-OV-3 ovarian
786-0 renal = test system: 786-0 renal
HCC-2998 colon = test system: HCC-2998 colon
A549 NSCLC = test system: A549 NSCLC
SF-268 CNS = test system: SF-268 CNS
RPMI-8226 leukemia = test system: RPMI-8226 leukemia
COLO 205 colon = test system: COLO 205 colon
PC-3 prostate = test system: PC-3 prostate
A498 renal = test system: A498 renal
HT29 colon = test system: HT29 colon
IGROV1 ovarian = test system: IGROV1 ovarian
OVCAR-4 ovarian = test system: OVCAR-4 ovarian
NCI-H460 lung = test system: NCI-H460 lung
M14 melanoma = test system: M14 melanoma
MCF7 breast = test system: MCF7 breast
SW-620 colon = test system: SW-620 colon
EKVX NSCLC = test system: EKVX NSCLC
SR leukemia = test system: SR leukemia
CCRF-CEM leukemia = test system: CCRF-CEM leukemia
MALME-3M melanoma = test system: MALME-3M melanoma
NCI-H226 lung = test system: NCI-H226 lung
HL-60(TB) leukemia = test system: HL-60(TB) leukemia
SNB-75 CNS = test system: SNB-75 CNS
SK-MEL-28 melanoma = test system: SK-MEL-28 melanoma
UO-31 renal = test system: UO-31 renal
HOP-62 NSCLC = test system: HOP-62 NSCLC
UACC-62 melanoma = test system: UACC-62 melanoma
OVCAR-5 ovarian = test system: OVCAR-5 ovarian
K-562 leukemia = test system: K-562 leukemia
SF-539 CNS = test system: SF-539 CNS
SK-MEL-5 melanoma = test system: SK-MEL-5 melanoma
MDA-MB-231 breast = test system: MDA-MB-231 breast
SN12C renal = test system: SN12C renal
MOLT-4 leukemia = test system: MOLT-4 leukemia
SNB-19 CNS = test system: SNB-19 CNS
CAKI-1 renal = test system: CAKI-1 renal
NCI-H23 lung = test system: NCI-H23 lung
SK-MEL-2 melanoma = test system: SK-MEL-2 melanoma
ACHN renal = test system: ACHN renal
SF-295 CNS = test system: SF-295 CNS
NCI/ADR-RES ovarian = test system: NCI/ADR-RES ovarian
HCT-116 colon = test system: HCT-116 colon
T-47D breast = test system: T-47D breast
UACC-257 melanoma = test system: UACC-257 melanoma
KM12 colon = test system: KM12 colon
HS 578T breast = test system: HS 578T breast
OVCAR-8 ovarian = test system: OVCAR-8 ovarian
MDA-N = test system: MDA-N
TK-10 renal = test system: TK-10 renal
MDA-MB-435 = test system: MDA-MB-435
DU-145 prostate = test system: DU-145 prostate
HCT-15 colon = test system: HCT-15 colon
OVCAR-3 ovarian = test system: OVCAR-3 ovarian
NCI-H522 lung = test system: NCI-H522 lung
RXF 393 renal = test system: RXF 393 renal
HOP-92 NSCLC = test system: HOP-92 NSCLC
LOX IMVI melanoma = test system: LOX IMVI melanoma
BT-549 breast = test system: BT-549 breast

**Q.** Which TGI (U251 CNS) does the source give for `O=C(/C=C/c1cccs1)c1ccc(Cl)s1` here?
**A.** > 100 µM

**Q.** And the TGI (SK-OV-3 ovarian)?
**A.** > 100 µM

**Q.** What about the TGI (786-0 renal) of the same compound?
**A.** > 10 µM

**Q.** What about the TGI (HCC-2998 colon) of the same compound?
**A.** 34.7 µM

**Q.** What about the TGI (A549 NSCLC) of the same compound?
**A.** > 100 µM

**Q.** What about the TGI (SF-268 CNS) of the same compound?
**A.** > 100 µM

**Q.** What about the TGI (RPMI-8226 leukemia) of the same compound?
**A.** 44 µM

**Q.** What about the TGI (COLO 205 colon) of the same compound?
**A.** > 10 µM

**Q.** And the TGI (PC-3 prostate)?
**A.** > 100 µM

**Q.** And the TGI (A498 renal)?
**A.** > 100 µM

**Q.** What about the TGI (HT29 colon) of the same compound?
**A.** > 10 µM

**Q.** What about the TGI (IGROV1 ovarian) of the same compound?
**A.** > 10 µM

**Q.** And the TGI (OVCAR-4 ovarian)?
**A.** > 100 µM

**Q.** And the TGI (NCI-H460 lung)?
**A.** > 100 µM

**Q.** And the TGI (M14 melanoma)?
**A.** > 100 µM

**Q.** And the TGI (MCF7 breast)?
**A.** > 100 µM

**Q.** And the TGI (SW-620 colon)?
**A.** 51.7 µM

**Q.** And the TGI (EKVX NSCLC)?
**A.** > 100 µM

**Q.** What about the TGI (SR leukemia) of the same compound?
**A.** 63.2 µM

**Q.** And the TGI (CCRF-CEM leukemia)?
**A.** 59.5 µM

**Q.** What about the TGI (MALME-3M melanoma) of the same compound?
**A.** > 100 µM

**Q.** And the TGI (NCI-H226 lung)?
**A.** 85.1 µM

**Q.** What about the TGI (HL-60(TB) leukemia) of the same compound?
**A.** 64.1 µM

**Q.** What about the TGI (SNB-75 CNS) of the same compound?
**A.** > 100 µM

**Q.** What about the TGI (SK-MEL-28 melanoma) of the same compound?
**A.** 59.3 µM

**Q.** And the TGI (UO-31 renal)?
**A.** 38.6 µM

**Q.** What about the TGI (HOP-62 NSCLC) of the same compound?
**A.** > 100 µM

**Q.** What about the TGI (UACC-62 melanoma) of the same compound?
**A.** > 100 µM

**Q.** And the TGI (OVCAR-5 ovarian)?
**A.** > 100 µM

**Q.** And the TGI (K-562 leukemia)?
**A.** > 100 µM

**Q.** What about the TGI (SF-539 CNS) of the same compound?
**A.** > 100 µM

**Q.** And the TGI (SK-MEL-5 melanoma)?
**A.** > 100 µM

**Q.** What about the TGI (MDA-MB-231 breast) of the same compound?
**A.** > 100 µM

**Q.** And the TGI (SN12C renal)?
**A.** 34.8 µM

**Q.** What about the TGI (MOLT-4 leukemia) of the same compound?
**A.** 52.3 µM

**Q.** What about the TGI (SNB-19 CNS) of the same compound?
**A.** 47.6 µM

**Q.** And the TGI (CAKI-1 renal)?
**A.** > 100 µM

**Q.** And the TGI (NCI-H23 lung)?
**A.** 51.2 µM

**Q.** And the TGI (SK-MEL-2 melanoma)?
**A.** > 100 µM

**Q.** What about the TGI (ACHN renal) of the same compound?
**A.** > 100 µM

**Q.** What about the TGI (SF-295 CNS) of the same compound?
**A.** > 100 µM

**Q.** And the TGI (NCI/ADR-RES ovarian)?
**A.** > 100 µM

**Q.** And the TGI (HCT-116 colon)?
**A.** 32.2 µM

**Q.** What about the TGI (T-47D breast) of the same compound?
**A.** > 100 µM

**Q.** What about the TGI (UACC-257 melanoma) of the same compound?
**A.** > 100 µM

**Q.** And the TGI (KM12 colon)?
**A.** 44.3 µM

**Q.** And the TGI (HS 578T breast)?
**A.** > 100 µM

**Q.** What about the TGI (OVCAR-8 ovarian) of the same compound?
**A.** > 100 µM

**Q.** What about the TGI (MDA-N) of the same compound?
**A.** > 10 µM

**Q.** And the TGI (TK-10 renal)?
**A.** > 100 µM

**Q.** And the TGI (MDA-MB-435)?
**A.** 37.3 µM

**Q.** And the TGI (DU-145 prostate)?
**A.** > 100 µM

**Q.** What about the TGI (HCT-15 colon) of the same compound?
**A.** 35.2 µM

**Q.** For `Cc1cccc2c(N)c3cccc(C(=O)NCCN4CCOCC4)c3nc12`, which TGI (U251 CNS) is on record?
**A.** 20.5 µM

**Q.** And the TGI (SK-OV-3 ovarian)?
**A.** 16.9 µM

**Q.** And the TGI (786-0 renal)?
**A.** 20.5 µM

**Q.** And the TGI (HCC-2998 colon)?
**A.** > 100 µM

**Q.** What about the TGI (OVCAR-3 ovarian) of the same compound?
**A.** 16.9 µM

**Q.** And the TGI (A549 NSCLC)?
**A.** 7.92 µM

**Q.** And the TGI (SF-268 CNS)?
**A.** 1.19 µM

**Q.** What about the TGI (RPMI-8226 leukemia) of the same compound?
**A.** > 60.4 µM

**Q.** And the TGI (COLO 205 colon)?
**A.** 2.49 µM

**Q.** And the TGI (PC-3 prostate)?
**A.** 7.19 µM

**Q.** And the TGI (A498 renal)?
**A.** 5 µM

**Q.** What about the TGI (HT29 colon) of the same compound?
**A.** 3.99 µM

**Q.** What about the TGI (IGROV1 ovarian) of the same compound?
**A.** 3.4 µM

**Q.** And the TGI (OVCAR-4 ovarian)?
**A.** 6.69 µM

**Q.** And the TGI (NCI-H460 lung)?
**A.** 14 µM

**Q.** And the TGI (M14 melanoma)?
**A.** 7.33 µM

**Q.** And the TGI (MCF7 breast)?
**A.** > 32.1 µM

**Q.** And the TGI (SW-620 colon)?
**A.** 26.1 µM

**Q.** And the TGI (EKVX NSCLC)?
**A.** 5.66 µM

**Q.** And the TGI (MALME-3M melanoma)?
**A.** 1.31 µM

**Q.** What about the TGI (HL-60(TB) leukemia) of the same compound?
**A.** 1.2 µM

**Q.** What about the TGI (SNB-75 CNS) of the same compound?
**A.** 1.32 µM

**Q.** And the TGI (NCI-H522 lung)?
**A.** 1.86 µM

**Q.** What about the TGI (SK-MEL-28 melanoma) of the same compound?
**A.** 6.29 µM

**Q.** What about the TGI (UO-31 renal) of the same compound?
**A.** 8.26 µM

**Q.** What about the TGI (HOP-62 NSCLC) of the same compound?
**A.** 7.55 µM

**Q.** What about the TGI (UACC-62 melanoma) of the same compound?
**A.** 3.18 µM

**Q.** And the TGI (OVCAR-5 ovarian)?
**A.** 8.7 µM

**Q.** What about the TGI (SF-539 CNS) of the same compound?
**A.** > 100 µM

**Q.** What about the TGI (SK-MEL-5 melanoma) of the same compound?
**A.** 2.46 µM

**Q.** What about the TGI (MDA-MB-231 breast) of the same compound?
**A.** 4.55 µM

**Q.** What about the TGI (SN12C renal) of the same compound?
**A.** 7.97 µM

**Q.** And the TGI (MOLT-4 leukemia)?
**A.** 1.71 µM

**Q.** What about the TGI (RXF 393 renal) of the same compound?
**A.** 2.62 µM

**Q.** And the TGI (SNB-19 CNS)?
**A.** 3.12 µM

**Q.** And the TGI (CAKI-1 renal)?
**A.** 17.3 µM

**Q.** And the TGI (NCI-H23 lung)?
**A.** 2.17 µM

**Q.** What about the TGI (SK-MEL-2 melanoma) of the same compound?
**A.** 2.61 µM

**Q.** What about the TGI (ACHN renal) of the same compound?
**A.** 13.1 µM

**Q.** What about the TGI (SF-295 CNS) of the same compound?
**A.** 10.9 µM

**Q.** And the TGI (HOP-92 NSCLC)?
**A.** 23.2 µM

**Q.** What about the TGI (NCI/ADR-RES ovarian) of the same compound?
**A.** 42.8 µM

**Q.** What about the TGI (HCT-116 colon) of the same compound?
**A.** 24.9 µM

**Q.** What about the TGI (UACC-257 melanoma) of the same compound?
**A.** 7.81 µM

**Q.** What about the TGI (KM12 colon) of the same compound?
**A.** 5 µM

**Q.** What about the TGI (HS 578T breast) of the same compound?
**A.** 0.43 µM

**Q.** And the TGI (MDA-N)?
**A.** 2.91 µM

**Q.** What about the TGI (LOX IMVI melanoma) of the same compound?
**A.** 4.28 µM

**Q.** And the TGI (BT-549 breast)?
**A.** 8.54 µM

**Q.** What about the TGI (TK-10 renal) of the same compound?
**A.** 18.6 µM

**Q.** And the TGI (MDA-MB-435)?
**A.** 2.12 µM

**Q.** What about the TGI (DU-145 prostate) of the same compound?
**A.** 11.6 µM

**Q.** What about the TGI (HCT-15 colon) of the same compound?
**A.** 6.39 µM
